Data from patent US6472397B1, “Nitrogen-containing heterocyclic compounds having antiplatelet aggregation effect and medicinal use thereof” (Meiji Seika Kaisha, Ltd., priority 1998, dated 2002).

How the values were obtained:
[1] = tested on: human PRP (platelet rich plasma); assay: Platelet aggregation inhibiting effect, ADP-induced, human PRP; assay type: cell-based; conditions: ADP final concentration 5 μM, preincubation 2 minutes, read-out: IC50 calculated from the aggregation rate
Description: Among the compounds represented by the general formula (I) according to the present invention, the platelet aggregation inhibiting effect of the above compound A was examined with human PRP (platelet rich plasma).
A 9 volume sample of blood was taken out through an injection syringe having 1 volume of 3.8% sodium citrate added thereto from the vein of normal human (male), centrifuged at 170×g for 10 minutes at room temperature, and the resulting supernatant was isolated as PRP. The residual blood from which PRP had been isolated was centrifuged at 2,700×g for 15 minutes, and the resulting supernatant was isolated as platelet poor plasma (PPP).
The platelet aggregation test was carried out with AGGRIGOMETER (PAM-8C) manufactured by MEBANICS. The substance to be tested is dissolved in 50% DMSO-physiological saline, 50% methanol-physiological saline, or a physiological saline. The preincubation time of the substance to be tested and PRP was set as 2 minutes. An aggregation driving agent ADP (CHRONO-PARREAGENTS384 ADP, CHRONO-LOG Corp.) was diluted with physiological saline so that the final concentration is 5 μM.
The platelet aggregation inhibiting activity was calculated from the following equation as the suppressive rate against the […] by ADP when no compound to be tested was added:
Platelet aggregation inhibiting activity (%)= [formula]

[2] = Oral administration test: bioavailability in rats; assay type: in vivo; conditions: result in words
Description: 1) Preparation of a Solution to be Administered
The compound was dissolved or suspended in either of the solvents in which the compound is preferably dispersed or dissolved including distilled water, CMC-Na, Tween 80, and HCO 60 to prepare the liquids for intravenous injection and oral administration. The liquids for intravenous injection and oral administration have a concentration of 0.3 mg/ml and 5 mg/ml, respectively. The concentrations of the compounds were determined by HPLC.
Rats having fasted for 16-20 hours were subjected to cannulation with a polyethylene tube (PE50) into femoral artery. […] The plasma samples were treated according to the method described below, and the activity substance was then measured by HPLC. […]
Among the observed values after administration, the observed values corresponding to the maximum plasma concentration (Cmax) and the time for reaching the maximum plasma concentration (Tmax) were confirmed. […] The area below the plasma concentration-time curve from 0 to infinity (AUCinfinite) was calculated by the trapezoidal method until the final observed value, and after the final observed value from the final observed value/kel as the sum of respective values. […]
Bioavailability (B.A. (%)) was calculated from the following equation: […]

## O=C(O)COc1ccc(C(=O)CN2CCN(C3CCNCC3)CC2=O)cc1 [Compound A]
[1]
  IC50: 42 nM

## CCOC(=O)COc1ccc(C(=O)CNC(=O)c2cc3c(s2)CCN(C(=O)OC(C)OC(C)=O)C3)cc1OCC(=O)OCC (centres unmarked) [Compound B, Diethyl [[4-[[[[5-(1-Acetoxyethyl)oxycarbonyl-4,5,6,7-tetrahydrothieno[3,2-c]pyridin-2-yl]carbonyl]amino]-acetyl]-o-phenylene]dioxy]diacetate]
[2]
  absorption capacity via oral administration: no high absorption capacity
